In US20230130066A1, “USE OF CYCLODEXTRINS IN DISEASES AND DISORDERS INVOLVING PHOSPHOLIPID DYSREGULATION” (priority 2017, published 2023):
Values joined by “and” are separate entries in the source; they are usually repeats but may differ in a detail not shown here. Equal values may be shown once. “Also recorded” adds a separate entry of the source. Read-outs that look alike come from different tables or passages of the source. Marks after values point to notes of the source that are not given here.

Legend:
BBB = conditions: cited from earlier work
[1] = cited from earlier work
Caco-2 cells = conditions: Caco-2 cells; cited from earlier work
[2] = randomized blinded n-of-1 PK/PD study: FPLC of morning urine; assay type: in vivo; conditions: oral intake in the evening
Description: The substances compared were • HP-α-CD, • the HP-α-CD/sodium caprate clathrate • a mixture of the HP-α-CD clathrate with the same amount of sodium caprate clathrate, also known as C-10 fatty acid, capric acid, decanoic acid. • a mixture of the HP-α-CD clathrate with the oily suspension proposed by (Tuvia S, Pelled D, et al. (2014) Pharmaceutical Research 31:2010-21).
Six samples per substance were taken.
The samples were taken in the evening before bed-time and urine samples were taken
Unexpectedly, however, PA (675) and SM (650) are not reduced and neither are lyso-phospholipids (460-550).

BCa = BCa mice: tumor volume by treatment; assay type: in vivo; conditions: Day*Treatment effect
[3] = randomized n-of-1 dose escalation study: excretion of phospholipids into urine after oral administration; assay type: in vivo, human; conditions: for Excretion of phospholipids into urine, adj (expected level in healthy subjects subtracted) / Excretion of phospholipids into urine, adj per g dose / Excretion of phospholipids into urine, avg / Excretion of phospholipids into urine, single measurements: within 8 h
Protocol: An randomized n-of-1 dose escalation study was conducted to assess the activity of a clathrate of HP-α-CD and sodium caprate (C-10 fatty acid, capric acid, decanoic acid) in extracting phospholipids from serum into urine.

[4] = tested on: unesterified cholesterol (UC) storage; conditions: 3-week-old Npc1-/- mice, dorsal neocortex, filipin; cited from earlier work
NPC cells = conditions: cited from earlier work
erythrocytes = conditions: cited from earlier work
[5] = tested on: enlarged lysosomes in fibroblasts; conditions: about 6 mM α-CD vs about 8 mM HP-β-CD; cited from earlier work
HaCaT keratinocytes = conditions: v. βCD; cited from earlier work
[6] = cited from earlier work; remark: listed apart in the source
[7] = animal studies; cited from earlier work
[8] = in vivo; cited from earlier work
rats [9] = conditions: cited from earlier work; for nephrosis, 1, 2, 3, 4, or 7 daily doses s.c.: 0.100 g/kg daily
[10] = parenteral delivery; cited from earlier work
rats [11] = conditions: cited from earlier work
transferrin endocytosis = conditions: 10 mM; cited from earlier work
[12] = LDL-receptor knockout mice, Western diet (21% milk fat) with 2.1% α-CD; cited from earlier work
human erythrocytes = conditions: cited from earlier work
MCF-7 cells = experiment: Wound healing / gap closure migration assay, MCF-7; assay type: cell-based, human; conditions: extrapolated from the results in FIG. 35
Protocol: Cells were cultured in 24-well culture plates (Cytoselect CBA-120, 0.9 mm wound healing/gap closure migration assay) for 24 h with wound healing insert in place.
Protocol: Warm up the 24-well plate (CBA-120, Cell BioLabs Inc.) with 0.9 mm CytoSelect Wound Healing Inserts at room temperature for 10 minutes. Using sterile forceps, orient the desired number of inserts in the plate wells with their “wound field” aligned in the same direction. Create a cell suspension containing 0.5-1.0×10^6 cells/ml in media containing 10% fetal bovine serum (FBS). Add 500 μL of cell suspension to each well by carefully inserting the pipette tip through the open end at the top of the insert. For optimal cell dispersion, add 250 μL of cell suspension to either side of the open ends at the top of the insert. Incubate cells in a cell culture incubator for 12-24 hours. Carefully remove the insert from the well to begin the wound healing assay. Use sterile forceps to grab and lift the insert slowly from the plate well. Slowly aspirate and discard the media from the wells. Wash wells with media to remove dead cells and debris. Finally, add media to wells to keep cells hydrated. Repeat wash if wells still have debris or unattached cells. When washing is complete, add media with FBS and/or compounds to continue cell culture and wound healing process. Agents that inhibit or stimulate cell migration can be added directly to the wells. Incubate cells in a cell culture incubator (2 hours) and then wash cells with PBS and then add fresh media without compounds. Incubate 12-24 hours before wash and fixing. Remove the fixation solution and add 400 μL of Cell Stain Solution to each well. Allow the stain to incubate with the cells for 15 minutes at room temperature. Aspirate and discard the solution. Carefully wash each stained well 3× with deionized water. Discard washes and allow cells to dry at room temperature. Cells that migrated into the wounded area or protruded from the border of the wound were visualized and photographed under an inverted microscope. Determine the surface area of the defined wound area: Total Surface Area=0.9 mm x length. Determine the surface area of the migrated cells into the wound area: Migrated Cell Surface Area=length of cell migration (mm)×2×length. Percent Closure (%)=Migrated Cell Surface Area/Total Surface Area x 100.

[13] = 12 mM cyclodextrin, 5 μM A2E, blue-light irradiation or 1 d in the dark; cited from earlier work
human keratinocytes = conditions: cited from earlier work
[14] = cited from earlier work; remark: listed apart in the source
rats [15] = conditions: rat, in vivo, iv; cited from earlier work
[16] = tested on: primary effusion lymphoma (PEL); conditions: mice; cited from earlier work
MCF7 BC cells = conditions: cited from earlier work
[17] = tested on: MDA-MB-241 and ZR751 BC cells; conditions: cited from earlier work
[18] = tested on: H7 Lewis lung cancer cell lines; conditions: three H7 Lewis lung cancer cell lines; cited from earlier work
α-synuclein [19] = molecular target: T1, α-synuclein (Homo sapiens, UniProt P37840); set-up: expressed in transfected cells; host or cells: HeLa cells; conditions: HeLa cells, 20 mM, 1 hr; cited from earlier work
[20] = even in the relative absence of cholesterol; cited from earlier work
α-synuclein [21] = molecular target: T1, α-synuclein; set-up: from tissue; host or cells: brain of hα-syn transgenic mice; conditions: mice; cited from earlier work
APP = conditions: AD mouse cells; cited from earlier work
Aβ = conditions: rat hippocampal neurons infected with SFV carrying APP; cited from earlier work
[22] = tested on: H7-O Lewis lung cancer cells; conditions: mice implanted with H7-O Lewis lung cancer cells; cited from earlier work
MDA-MB-231 BC cells = conditions: independently of cholesterol; cited from earlier work
BC = conditions: in vivo; cited from earlier work
[23] = molecular target: BC resistance protein (BCRP/ABCG2) (Homo sapiens, UniProt Q9UNQ0); conditions: cited from earlier work
BC resistance protein (BCRP/ABCG2), sequence (Q9UNQ0 whole entry): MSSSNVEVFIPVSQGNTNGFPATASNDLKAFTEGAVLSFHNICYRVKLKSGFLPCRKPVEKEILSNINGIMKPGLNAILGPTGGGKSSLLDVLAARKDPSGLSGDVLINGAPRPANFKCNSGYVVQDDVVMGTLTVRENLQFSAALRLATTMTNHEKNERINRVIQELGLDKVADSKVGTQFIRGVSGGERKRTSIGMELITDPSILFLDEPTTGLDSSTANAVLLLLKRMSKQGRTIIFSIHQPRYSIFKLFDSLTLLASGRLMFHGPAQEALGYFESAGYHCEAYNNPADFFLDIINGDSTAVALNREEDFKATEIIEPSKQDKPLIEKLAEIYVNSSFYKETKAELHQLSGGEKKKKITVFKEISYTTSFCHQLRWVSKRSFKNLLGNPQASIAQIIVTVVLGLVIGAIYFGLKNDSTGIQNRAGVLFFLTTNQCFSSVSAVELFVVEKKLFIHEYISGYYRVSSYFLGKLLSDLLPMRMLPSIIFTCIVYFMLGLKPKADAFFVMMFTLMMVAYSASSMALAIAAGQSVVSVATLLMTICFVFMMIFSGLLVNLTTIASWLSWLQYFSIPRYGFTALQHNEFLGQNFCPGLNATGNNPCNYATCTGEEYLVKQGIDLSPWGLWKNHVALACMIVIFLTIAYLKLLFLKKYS

a-syn = molecular target: T2, a-syn (Homo sapiens, UniProt P37840); conditions: transfected cells, immunoblot; cited from earlier work
T2 construct: expressed in transfected cells

For “2-hydroxypropyl-α-cyclodextrin [HP-α-CD]”, the BBB breakdown (BBB) is listed as 2.5 mM, the Solubility in water ([1]; Table 1) is listed as greater than 500 g/L and the Solubility in water ([1]; Table 3) is listed as ~500^a g/l. The cytotoxicity (Caco-2 cells) was “less cytotoxic than α-CD”, the “recovery of HP-α-CD from morning urine (resorption)” value [2] was “not excreted” and the “Tumor Volume” value (BCa) was “effective”. The “Excretion of phospholipids into urine, adj (expected level in healthy subjects subtracted)” value ([3]; oral dose 18 g) was 1.05 mM, the “Excretion of phospholipids into urine, adj per g dose” value (“Excretion … per g dose” below) ([3]; oral dose 18 g) was 0.06 mM/g and the “Excretion of phospholipids into urine, avg” value (“Excretion … avg” below) ([3]; oral dose 18 g) was 3.87 mM. The “Excretion of phospholipids into urine, single measurements” value (“Excretion … single measurements” for short) ([3]; oral dose 18 g) was 3.8 mM and 3.5 mM and 4.3 mM, the “Excretion of phospholipids into urine, adj (expected level in healthy subjects subtracted)” value ([3]; oral dose 22 g) was 2.11 mM and the “Excretion … per g dose” value ([3]; oral dose 22 g) was 0.10 mM/g. The “Excretion … avg” value ([3]; oral dose 22 g) was 4.93 mM, the “Excretion … single measurements” value ([3]; oral dose 22 g) was 5.2 mM and 4.4 mM and the “Excretion of phospholipids into urine, adj (expected level in healthy subjects subtracted)” value ([3]; oral dose 26 g) was 4.05 mM. The “Excretion … per g dose” value ([3]; oral dose 26 g) was 0.16 mM/g, the “Excretion … avg” value ([3]; oral dose 26 g) was 6.87 mM and the “Excretion … single measurements” value ([3]; oral dose 26 g) was 7.2 mM and 6.3 mM and 7.1 mM. For the same compound, the “Excretion of phospholipids into urine, adj (expected level in healthy subjects subtracted)” value ([3]; oral dose 30 g) was 4.65 mM, the “Excretion … per g dose” value ([3]; oral dose 30 g) was 0.15 mM/g and the “Excretion … avg” value ([3]; oral dose 30 g) was 7.47 mM. The “Excretion … single measurements” value ([3]; oral dose 30 g) was 7.5 mM and 6.8 mM and 8.1 mM, the “Excretion of phospholipids into urine, adj (expected level in healthy subjects subtracted)” value ([3]; oral dose 36 g) was 5.75 mM and the “Excretion … per g dose” value ([3]; oral dose 36 g) was 0.16 mM/g. For the same compound, the “Excretion … avg” value ([3]; oral dose 36 g) was 8.57 mM, the “Excretion … single measurements” value ([3]; oral dose 36 g) was 8.2 mM and 8.8 mM and 8.7 mM and the “Excretion of phospholipids into urine, adj (expected level in healthy subjects subtracted)” value ([3]; oral dose 44 g) was 4.88 mM. The “Excretion … per g dose” value ([3]; oral dose 44 g) was 0.11 mM/g, the “Excretion … avg” value ([3]; oral dose 44 g) was 7.70 mM and the “Excretion … single measurements” value ([3]; oral dose 44 g) was 8.0 mM and 7.6 mM and 7.5 mM. The side effect observed ([3]; oral, only at the highest (44 g) dose) was “softening of stool” and the “UC storage in brain cells” value [4] was “clearly reduced”.

For `OC[C@H]1O[C@@H]2O[C@H]3[C@H](O)[C@@H](O)[C@@H](O[C@H]4[C@H](O)[C@@H](O)[C@@H](O[C@H]5[C@H](O)[C@@H](O)[C@@H](O[C@H]6[C@H](O)[C@@H](O)[C@@H](O[C@H]7[C@H](O)[C@@H](O)[C@@H](O[C@H]1[C@H](O)[C@H]2O)O[C@@H]7CO)O[C@@H]6CO)O[C@@H]5CO)O[C@@H]4CO)O[C@@H]3CO` [α-CD, alpha-cyclodextrin], the cholesterol accumulation (NPC cells) is listed as “can reduce cholesterol accumulation”, the BBB breakdown (BBB) is listed as 1 mM and the “toxicity on BBB in vitro” value (BBB) is listed as “more toxic”. For the same compound, the phospholipids released (erythrocytes; 10 mM) was 30%, the extraction of cholesterol (erythrocytes; erythrocytes) was “negligible” and the reducing lysosomal storage [5] was “more effective”. For the same compound, the “toxicity in HaCaT cells (proliferation, caspase activity, lactose dehydrogenase)” value (HaCaT keratinocytes) was “lower toxicity”, the “oral absorption in rats” value [6] was 2-3% and the ototoxicity [7] was “did not show ototoxicity”. For the same compound, the Solubility in water ([1]; Table 3) was 130 to 145 g/L, the “tolerance in cyclosporine eye-drops” value [8] was “well tolerated” and the “nephrosis, 1, 2, 3, 4, or 7 daily doses s.c.” value (rats [9]; listed as α-cyclodextrin) was “not apparent”. For the same compound, the “nephrosis, 1, 2, 3, 4, or 7 daily doses s.c.” value (rats [9]) was 0.100 no nephrosis, the “deaths, daily doses s.c.” value (rats [9]; 1.000 g/kg daily, listed as α-cyclodextrin) was 1 died after 2 days and the “deaths, daily doses s.c.” value (rats [9]; 1.000 g/kg daily) was “one died after 2 days”. For the same compound, the “nephrosis, daily doses s.c.” value (rats [9]; 1.000 g/kg daily) was 1.000 severe, the “excretion into the urine” value [10] was “excreted almost completely in an intact form” and the “nephrosis, single dose s.c.” value (rats [11]; 0.100 g/kg) was 0.100 no changes. For the same compound, the “nephrosis, single dose s.c.” value (rats [11]; 1.000 g/kg) was 1.000 changes seen, the “reduction of transferrin endocytosis” value (transferrin endocytosis) was 20% and the “decrease of plasma PLs” value [12] was 17.5%. For the same compound, the “hemolytic activity / tolerance of human erythrocytes” value (human erythrocytes) was “lower than that of both β-CD and HP-β-CD; also recorded: tolerate α-CD better then β-CD”, the “dose with the same efficacy in preventing migration of cancer cells as 2000 mg/kg/d bCD” value (MCF-7 cells) was 700 mg/kg/day and the “protection of A2E against oxidation” value [13] was “not”. The apoptotic cell death (human keratinocytes) was “not apoptotic”, the “i.v. toxicity, 1 g daily” value [14] was 1 died and the “single dose i.v. LD50” value (rats [15]) was 0.788/1.008 * g/kg.

For methyl-β-cyclodextrin [MβCD], the cholesterol accumulation (NPC cells) is given as “most potent”, the “growth of primary effusion lymphoma (PEL)” value [16] is given as “inhibited growth” and the “toxicity on BBB in vitro” value (BBB) is given as “similar”. For the same compound, the endocytosis and migration (MCF7 BC cells) was “inhibited”, the “spheroid migration and invasion” value [17] was “inhibited” and the invasion activity [18] was “suppressed invasion activity”. For the same compound, the “co-location of α-synuclein with the cell membrane” value (α-synuclein [19]) was “dramatically reduced”, the “LPC or FFA mediated surfactant inhibition” value [20] was “reversed” and the “accumulation of α-synuclein in neuronal cell body and synapses” value (α-synuclein [21]) was “reduced accumulation”. The “APPsα levels in the medium” value (APP) was “increased”, the “APPsβ levels in the medium” value (APP) was “did not change” and the “levels of intracellular APPsβ” value (APP) was “decrease”. For the same compound, the “levels of α secretase cleavage products C83” value (APP) was “increase”, the “secretion of Aβ” value (Aβ) was “inhibits secretion” and the “number of lung metastases” value [22] was “reduced the number of lung metastases”. The “internalization of exosomes containing integrins” value (MDA-MB-231 BC cells) was “inhibited”, the “efficacy in a mouse model of BC” value (BC) was “effective” and the “decrease in activity of BC resistance protein (BCRP/ABCG2)” value [23] was 40%. For the same compound, the “protection of A2E against oxidation” value [13] was “protect A2E against oxidation” and the “level of a-syn in the membrane fraction and detergent-insoluble fraction” value (a-syn) was “reduced the level of a-syn”.
